Among the data in ChEMBL document CHEMBL2216750, “Irreversible protein kinase inhibitors: balancing the benefits and risks” (J Med Chem, 2012) are IC50 and Occ values, retold here.

Experiment [1] has as its target Mitogen-activated protein kinase 1 (Homo sapiens, UniProt P28482). The experiment in a line: Inhibition of Erk2.
The target in experiment [2] is Dual specificity mitogen-activated protein kinase kinase 1 (Homo sapiens, UniProt Q02750). The experiment in a line: Inhibition of MEK1.
Experiment [3] concerns the target T1, Dual specificity mitogen-activated protein kinase kinase 7 (Homo sapiens, UniProt O14733).
T1 sequence (O14733 whole entry): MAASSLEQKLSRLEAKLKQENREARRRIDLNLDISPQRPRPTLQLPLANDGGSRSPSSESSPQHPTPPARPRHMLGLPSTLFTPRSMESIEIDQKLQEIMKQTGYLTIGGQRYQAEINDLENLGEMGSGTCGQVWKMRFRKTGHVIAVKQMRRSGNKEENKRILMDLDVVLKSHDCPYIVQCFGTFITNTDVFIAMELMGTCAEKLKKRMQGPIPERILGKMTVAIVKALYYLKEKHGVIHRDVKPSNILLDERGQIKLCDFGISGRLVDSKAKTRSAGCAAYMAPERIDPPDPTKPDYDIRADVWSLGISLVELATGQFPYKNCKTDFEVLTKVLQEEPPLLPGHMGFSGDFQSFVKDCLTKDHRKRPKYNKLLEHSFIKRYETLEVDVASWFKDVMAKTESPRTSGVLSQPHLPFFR
The experiment in a line: Inhibition of MEK7.

Experiment [4] has as its target T2, Dual specificity mitogen-activated protein kinase kinase 4 (Homo sapiens, UniProt P45985).
T2 sequence (P45985 whole entry): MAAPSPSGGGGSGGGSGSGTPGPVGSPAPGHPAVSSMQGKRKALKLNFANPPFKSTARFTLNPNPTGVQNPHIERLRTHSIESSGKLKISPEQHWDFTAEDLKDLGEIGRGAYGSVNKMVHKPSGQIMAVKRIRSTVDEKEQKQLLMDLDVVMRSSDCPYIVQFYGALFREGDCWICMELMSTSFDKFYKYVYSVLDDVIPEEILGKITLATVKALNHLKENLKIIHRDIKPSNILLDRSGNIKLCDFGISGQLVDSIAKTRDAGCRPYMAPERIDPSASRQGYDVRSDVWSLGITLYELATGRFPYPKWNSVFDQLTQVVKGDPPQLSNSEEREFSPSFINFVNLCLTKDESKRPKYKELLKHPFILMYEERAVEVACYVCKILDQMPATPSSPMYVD
The experiment in a line: Inhibition of MKK4.

Experiment [5] addresses T3, Proto-oncogene tyrosine-protein kinase Src (Gallus gallus, UniProt P00523). The experiment is described as follows: Inhibition of chicken c-Src using IYGEFKKK peptide as a substrate and [32P]ATP by […].
Experiment [6] has as its target Mitogen-activated protein kinase kinase kinase 1 (Homo sapiens, UniProt Q13233). The experiment in a line: Inhibition of MEKK1.
For the next experiment, the system named is Mus musculus. The experiment in a line: Receptor occupancy of Btk in CIA mouse model at 60 mg/kg/day. The format is functional.
Experiment [7] concerns the target T3, Proto-oncogene tyrosine-protein kinase Src. The experiment is described as follows: Inhibition of chicken c-Src.
Experiment [8] concerns the target Proto-oncogene tyrosine-protein kinase Src (Gallus gallus, UniProt P00523, T338G). The experiment in a line: Inhibition of chicken c-Src T338G mutant.
Experiment [9] has as its target RAC-alpha serine/threonine-protein kinase (Homo sapiens, UniProt P31749). The experiment is described as follows: Inhibition of human AKT1 using biotinylated GSKalpha peptide (SGRARTSSFA) as a substrate after 1 hr.

pIC50: −log10 of the molar value.

Dual specificity mitogen-activated protein kinase kinase 1, sequence (Q02750 whole entry): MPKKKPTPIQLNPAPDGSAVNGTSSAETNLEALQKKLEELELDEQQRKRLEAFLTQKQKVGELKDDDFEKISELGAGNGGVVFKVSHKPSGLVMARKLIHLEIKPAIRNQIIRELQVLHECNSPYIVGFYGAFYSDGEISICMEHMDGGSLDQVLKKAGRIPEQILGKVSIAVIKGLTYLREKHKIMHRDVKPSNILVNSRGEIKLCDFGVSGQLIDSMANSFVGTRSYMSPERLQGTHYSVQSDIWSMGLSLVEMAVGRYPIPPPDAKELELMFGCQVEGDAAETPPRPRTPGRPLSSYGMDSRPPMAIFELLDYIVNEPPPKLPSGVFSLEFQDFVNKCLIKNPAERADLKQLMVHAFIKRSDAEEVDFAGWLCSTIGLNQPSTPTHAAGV
RAC-alpha serine/threonine-protein kinase, sequence (P31749 whole entry): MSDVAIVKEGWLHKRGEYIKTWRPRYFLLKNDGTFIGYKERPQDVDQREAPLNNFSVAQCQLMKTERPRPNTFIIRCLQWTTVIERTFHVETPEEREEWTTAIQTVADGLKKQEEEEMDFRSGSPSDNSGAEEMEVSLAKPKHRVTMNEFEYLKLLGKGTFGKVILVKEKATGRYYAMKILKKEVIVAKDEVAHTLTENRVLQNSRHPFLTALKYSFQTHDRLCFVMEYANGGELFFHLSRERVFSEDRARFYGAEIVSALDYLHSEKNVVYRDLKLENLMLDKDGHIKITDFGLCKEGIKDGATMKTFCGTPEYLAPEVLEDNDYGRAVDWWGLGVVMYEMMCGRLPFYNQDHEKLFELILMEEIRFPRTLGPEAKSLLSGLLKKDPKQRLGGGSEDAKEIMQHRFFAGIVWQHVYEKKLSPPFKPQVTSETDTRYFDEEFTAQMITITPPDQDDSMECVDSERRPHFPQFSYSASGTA
Mitogen-activated protein kinase kinase kinase 1, sequence (Q13233 whole entry): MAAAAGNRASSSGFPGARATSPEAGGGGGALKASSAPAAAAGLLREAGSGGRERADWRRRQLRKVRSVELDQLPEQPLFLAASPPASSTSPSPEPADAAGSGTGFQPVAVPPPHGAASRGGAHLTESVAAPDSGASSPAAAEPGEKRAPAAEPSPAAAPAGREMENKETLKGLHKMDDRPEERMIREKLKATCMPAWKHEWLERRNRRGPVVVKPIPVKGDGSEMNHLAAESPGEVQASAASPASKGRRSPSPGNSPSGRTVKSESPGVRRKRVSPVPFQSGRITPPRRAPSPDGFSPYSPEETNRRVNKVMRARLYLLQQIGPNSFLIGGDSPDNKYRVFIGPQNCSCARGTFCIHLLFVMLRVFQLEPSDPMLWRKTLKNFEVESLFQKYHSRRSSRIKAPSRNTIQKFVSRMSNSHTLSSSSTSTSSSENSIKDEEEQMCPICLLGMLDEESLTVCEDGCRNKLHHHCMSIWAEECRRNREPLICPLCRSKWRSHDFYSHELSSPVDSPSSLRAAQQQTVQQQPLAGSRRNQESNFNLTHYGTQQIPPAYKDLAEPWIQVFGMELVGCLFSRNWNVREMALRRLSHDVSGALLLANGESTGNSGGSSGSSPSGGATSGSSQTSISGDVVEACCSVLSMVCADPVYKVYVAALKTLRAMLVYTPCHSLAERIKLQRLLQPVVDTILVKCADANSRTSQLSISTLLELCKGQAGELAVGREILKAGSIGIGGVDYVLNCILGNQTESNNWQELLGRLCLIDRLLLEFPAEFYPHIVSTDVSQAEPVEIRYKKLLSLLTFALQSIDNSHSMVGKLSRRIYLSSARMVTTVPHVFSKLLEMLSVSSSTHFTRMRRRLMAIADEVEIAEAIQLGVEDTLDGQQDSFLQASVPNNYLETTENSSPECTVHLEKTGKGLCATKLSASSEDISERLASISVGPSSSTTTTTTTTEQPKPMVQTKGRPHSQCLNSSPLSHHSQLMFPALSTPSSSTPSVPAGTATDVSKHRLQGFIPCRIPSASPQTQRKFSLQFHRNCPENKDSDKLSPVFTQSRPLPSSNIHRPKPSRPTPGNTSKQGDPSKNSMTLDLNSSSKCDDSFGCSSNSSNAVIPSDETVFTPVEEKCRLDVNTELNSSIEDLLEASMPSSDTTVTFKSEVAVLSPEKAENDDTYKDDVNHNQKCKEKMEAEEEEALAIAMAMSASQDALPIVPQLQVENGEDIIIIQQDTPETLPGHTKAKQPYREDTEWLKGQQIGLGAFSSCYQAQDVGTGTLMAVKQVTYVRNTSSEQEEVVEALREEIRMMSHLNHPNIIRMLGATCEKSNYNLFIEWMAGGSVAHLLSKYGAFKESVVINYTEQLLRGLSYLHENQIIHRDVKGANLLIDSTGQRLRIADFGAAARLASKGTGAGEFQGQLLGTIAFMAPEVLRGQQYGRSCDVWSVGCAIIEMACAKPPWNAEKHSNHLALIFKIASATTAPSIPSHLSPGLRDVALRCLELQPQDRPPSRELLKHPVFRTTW
Mitogen-activated protein kinase 1, sequence (P28482 whole entry): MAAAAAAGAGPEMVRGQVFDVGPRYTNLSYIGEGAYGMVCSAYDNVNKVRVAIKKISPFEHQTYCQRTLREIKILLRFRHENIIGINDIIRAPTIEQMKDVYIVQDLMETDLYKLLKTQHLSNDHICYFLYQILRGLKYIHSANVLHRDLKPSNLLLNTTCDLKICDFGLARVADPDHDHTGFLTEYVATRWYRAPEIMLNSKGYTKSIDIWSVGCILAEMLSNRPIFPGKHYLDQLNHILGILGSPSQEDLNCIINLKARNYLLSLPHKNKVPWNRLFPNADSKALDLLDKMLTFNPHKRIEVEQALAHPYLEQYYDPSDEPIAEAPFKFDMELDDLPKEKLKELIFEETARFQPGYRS

In the case of `COc1cc(O)c2c(c1)/C=C/C[C@H](O)[C@H](O)C(=O)/C=C\C[C@H](C)OC2=O`, the pIC50 was 7.10 in experiment [1], 8.22 in experiment [2], 6.52 in [3] and < 5.52 in [4].

`C=CS(=O)(=O)Nc1cccc(Cc2nn(C(C)C)c3ncnc(N)c23)c1`: the pIC50 in experiment [5] was < 5.30.

On to `CCNc1cc(O)c2c(c1)/C=C/C[C@@H](O)[C@H](O)C(=O)/C=C\[C@H](C)[C@H](C)OC2=O`, for which the pIC50 is 8.28 in experiment [2] and 7.51 in experiment [6].

Molecule `C=CC(=O)Nc1cccc(Nc2nc(Nc3ccc(Oc4ccnc(C(=O)NC)c4)cc3)ncc2F)c1` yielded an Occ in the experiment on Mus musculus of 70%.

For `O=C(Nc1ccc2ncnc(Nc3cccc(Br)c3)c2c1)[C@@H]1O[C@H]1CN1CCCCC1`, the pIC50 in experiment [7] is < 4.57; in experiment [8], 9.00.

Regarding `CC#CC(=O)Nc1ccc2ncnc(Nc3cccc(Br)c3)c2c1`, the negative logarithm of the IC50 (pIC50) was < 4.57 in experiment [7] and 9.00 in experiment [8].

As for `CN(C)C/C=C/C(=O)Nc1ccc2ncnc(Nc3cccc(Br)c3)c2c1`, the values for the pIC50 in experiment [7] and in experiment [8] were < 4.57 and 9.00, respectively.

For the molecule `CCC[C@H]1O[C@@H]2CC(=O)O[C@@H]2C2=C1C(=O)c1c(O)cccc1C2=O` [FRENOLICIN B], the pIC50 in experiment [9] is 6.50.

For orientation: pIC50 means the negative decadic logarithm of the IC50, by convention in mol/L. The low end stands for a large IC50, the high end for a small IC50.
